Results reported in patent publication US20140371171A1, “Aqueous Lock Composition Comprising Ethanol and a Polysaccharide Anticoagulant” (UNIVERSITE D'AUVERGNE CLERMONT I, priority 2012, published 2014).

Columns and labels:
Format in all cases: physicochemical
[1] = Ethanol concentration that does not cause the lock composition to precipitate, varying the heparin content; details: observed after 48 hours
Protocol: The lock compositions tested were as follows: • composition comprising a mixture of the nadroparin calcium and ethanol • composition comprising a mixture of the tinzaparin sodium and ethanol, • composition comprising a mixture of the dalteparin sodium and ethanol, • composition comprising a mixture of the enoxaparin sodium and ethanol. […] The compositions were tested at ambient temperature and at 37° C. and the results were observed after 48 hours.

[2] = Visual observation of precipitation in ethanol/enoxaparin sodium mixtures; details: enoxaparin sodium 400 IU/mL
Protocol: Various mixtures of ethanol/enoxaparin sodium were prepared in 5 mL glass hemolysis tubes combining either: • a) a fixed concentration of enoxaparin sodium with 400 IU/mL (corresponding to the dose used in an antithrombotic preventive lock) in a range of increasing concentrations of ethanol (30%, 40%, 45%, 50%, 60% and 70% by volume (v/v)), the dilutions of ethanol having been made in physiological serum solution (NaCl in a concentration of 0.9 g/100 ml). • b) increasing concentrations of enoxaparin sodium (50, 100, 400, 500 and 1,000 IU/mL) in an ethanol solution of fixed concentration (40, 45 or 50% v/v). The visual observation of different ethanol/enoxaparin mixtures was carried out by way of an assessment of the presence (or absence) of precipitation at the time of effecting the contacting of the two solutions; the observed phenomena corresponding, either to the absence (level 0 noted −), or the presence of a precipitation. The extent of the precipitation was assessed, either based on the appearance of a cloudiness, or on the formation of a deposit in the form of droplets and the levels were evaluated by the scores: +, ++, +++. […] The observation was monitored over time, that is after 1 minute, 1 hour, 24 hours, 48 hours and 72 hours, of contact, and this was done at two temperatures, 20° C. and 37° C.

[3] = Assay of enoxaparin by HPLC-ELSD in supernatant; details: enoxaparin sodium 400 IU/mL; ethanol 70% v/v
Protocol: The assaying of enoxaparin was performed by a method of coupling high-performance liquid chromatography (HPLC) with an evaporative light scattering detector (ELSD) method. In order to be within the zone of linearity of the detector response, the samples were diluted to one tenth in the physiological serum solution. The analysis was carried out in the mixtures combining enoxaparin sodium 400 IU/mL with increasing concentrations of ethanol (30 to 70% (V/V)), in comparison with a calibration range of the enoxaparin composition (marketed under the trade name Lovenox®) prepared in the physiological serum solution at the following concentrations: 6 IU/mL, 12 IU/mL, 40 IU/mL, 80 IU/mL, 120 IU/mL.
For the samples presenting a cloudiness effect, a preliminary centrifugation at 1,600 g for 5 minutes was carried out and only the supernatant was subsequently analysed.
The operating conditions for the chromatographic separation were as follows: • analytical column measuring 150 mm in length and 4.6 mm in diameter, filled with a stationary phase of C18 5 μm. • separation of components in isocratic mode making use of a mixture of methanol/water, 50/50 (V/V) at a flow rate of 0.3 mL/min. • detection using an evaporative light scattering detector (ELSD): evaporation temperature of 40° C., gain of the detector=3 and pressure of nitrogen (nebulizer gas)=3.5 bar.

With dalteparin sodium the “Ethanol content (% v/v) at 37° C. that does not cause precipitation” value ([1]; heparin content 10 IU/mL) was 47.8 % v/v, the “Ethanol content (% v/v) at ambient temperature that does not cause precipitation” value ([1]; heparin content 10 IU/mL) was 44.6 % v/v and the “Ethanol content (% v/v) at 37° C. that does not cause precipitation” value ([1]; heparin content 500 IU/mL) was 41.9 % v/v. For the same substance, the “Ethanol content (% v/v) at ambient temperature that does not cause precipitation” value ([1]; heparin content 500 IU/mL) was 35.7 % v/v, the “Ethanol content (% v/v) at 37° C. that does not cause precipitation” value ([1]; heparin content 1,000 IU/mL) was 35.9 % v/v and the “Ethanol content (% v/v) at ambient temperature that does not cause precipitation” value ([1]; heparin content 1,000 IU/mL) was 26.7 % v/v.

For enoxaparin sodium, the “visual appearance of the mixture (cloudiness)” value ([2]; ethanol 60 and 70% v/v) was “the cloudiness increases progressively as the ethanol content increases”, the “visual appearance of the mixture (precipitation)” value ([2]; ethanol less than or equal to 40% v/v, up to 72 hours at 20° C. or 37° C.) was “remains clear and colourless” and the “Ethanol content (% v/v) at 37° C. that does not cause precipitation” value ([1]; heparin content 10 IU/mL) was 48.2 % v/v. For the same substance, the “Ethanol content (% v/v) at ambient temperature that does not cause precipitation” value ([1]; heparin content 10 IU/mL) was 47.6 % v/v, the “Ethanol content (% v/v) at 37° C. that does not cause precipitation” value ([1]; heparin content 500 IU/mL) was 45.8 % v/v and the “Ethanol content (% v/v) at ambient temperature that does not cause precipitation” value ([1]; heparin content 500 IU/mL) was 40.7 % v/v. The “Ethanol content (% v/v) at 37° C. that does not cause precipitation” value ([1]; heparin content 1,000 IU/mL) was 43.3 % v/v, the “Ethanol content (% v/v) at ambient temperature that does not cause precipitation” value ([1]; heparin content 1,000 IU/mL) was 33.7 % v/v and the “enoxaparin content levels found in the supernatant after centrifugation” value [3] was “not detectable”.

In the case of nadroparin calcium, the “Ethanol content (% v/v) at 37° C. that does not cause precipitation” value ([1]; heparin content 10 IU/mL) is reported as 44.6 % v/v, the “Ethanol content (% v/v) at ambient temperature that does not cause precipitation” value ([1]; heparin content 10 IU/mL) is reported as 43.7 % v/v and the “Ethanol content (% v/v) at 37° C. that does not cause precipitation” value ([1]; heparin content 500 IU/mL) is reported as 41.7 % v/v. The “Ethanol content (% v/v) at ambient temperature that does not cause precipitation” value ([1]; heparin content 500 IU/mL) was 41.7 % v/v, the “Ethanol content (% v/v) at 37° C. that does not cause precipitation” value ([1]; heparin content 1,000 IU/mL) was 38.7 % v/v and the “Ethanol content (% v/v) at ambient temperature that does not cause precipitation” value ([1]; heparin content 1,000 IU/mL) was 39.7 % v/v.

In the case of tinzaparin sodium, the “Ethanol content (% v/v) at 37° C. that does not cause precipitation” value ([1]; heparin content 10 IU/mL) is reported as 44.0 % v/v, the “Ethanol content (% v/v) at ambient temperature that does not cause precipitation” value ([1]; heparin content 10 IU/mL) is reported as 42.1 % v/v and the “Ethanol content (% v/v) at 37° C. that does not cause precipitation” value ([1]; heparin content 500 IU/mL) is reported as 41.0 % v/v. The “Ethanol content (% v/v) at ambient temperature that does not cause precipitation” value ([1]; heparin content 500 IU/mL) was 34.3 % v/v, the “Ethanol content (% v/v) at 37° C. that does not cause precipitation” value ([1]; heparin content 1,000 IU/mL) was 38.0 % v/v and the “Ethanol content (% v/v) at ambient temperature that does not cause precipitation” value ([1]; heparin content 1,000 IU/mL) was 26.3 % v/v.
